Data published in patent US20250152608A1, “CONTRACEPTIVE METHODS WITH IMPROVED PEARL INDEX” (ESTETRA SRL, priority 2022, published 2025).

Assay: Solubility description
Format: physicochemical

SMILES | Solubility (acetone) | Solubility (ethyl acetate and acetonitrile) | Solubility (methanol, ethanol) | Solubility (water and aqueous solutions) | Solubility (water)
C[C@]12CC[C@@H]3c4ccc(O)cc4CC[C@H]3[C@@H]1[C@@H](O)[C@@H](O)C2O (stereo in doubt) [Estetrol monohydrate, estra-1,3,5(10)-triene-3,15α,16α,17α-tetrol monohydrate] | sparingly soluble | slightly soluble | soluble | poorly soluble | –
C[C@]12CCC(=O)C=C1[C@@H]1C[C@@H]1[C@H]1[C@@H]3[C@@H]4C[C@@H]4[C@@]4(CCC(=O)O4)[C@@]3(C)CC[C@@H]12 [Drospirenone] | – | – | – | – | slight solubility
